Where two headings read alike, the source gives them in different places.
Assays:
[1] = system: SUN-1 cells; experiment: MTS cell viability / proliferation assay; assay type: cell-based; conditions: 72 hrs, in combination with sorafenib
Protocol: Gastric cancer cell line SUN-1 was purchased from the American Type Culture Collection (ATCC; Manassas, Va., USA) and were maintained in Roswell Park Memorial Institute-1640 (RPMI-1640) supplemented with 1.5 g/L sodium bicarbonate, 10% fetal bovine serum (FBS), 1.0% antibiotic-antimycotic, L-glutamine (2.0×10^−3 M), and 1.0% nonessential amino acids.
MTS cell proliferation assay kit (Abcam, Cambridge, UK) was used to evaluate cell viability. Briefly, SNU-1 cells were seeded in each well of a 96-well plate at the density of 8,000 cells/well and incubated overnight at 37° C. Cells were then treated with a test drug for 48 or 72 h at 37° C. Then, 20 μl MTS/well was added and incubated for 3 h at 37° C. Cell viability was measured by absorbance at 490 nm in a microplate reader.
To validate the bioactivity of the ammonium salts of GW5074 of Example 1, their effects on cell proliferation with or without the addition of another cell proliferation inhibitor-sorafenib, were investigated using MTS cell proliferation assay kit in accordance with the manufacturer's protocols. Results are illustrated FIGS. 1A and 1B.

[2] = mouse, in vivo, 40 mg/kg
Protocol: (§1) B6 mice about 6-8 weeks of age (National laboratory animal center, Taipei, Taiwan) were used in the present study.
(§2) Pilot PK studies were carried out in mice.
(§3) Mice were fasting for 8 hrs before dosing. […] Blood samples were drawn from the tail vein at pre-designated time points. Each samples were extracted with 80% ethanol for 30 minutes and individually filtered through a 0.22 μm PVDF filter, then were subjected to HPLC-MS/MS.

[3] = Water solubility of GW5074 salts
[4] = Pilot pharmacokinetic study in mice; conditions: single dose 40 mg/Kg, GW5074 measured in plasma; for AUC0-t: 0 to 24 hours
Protocol: as §1, §2, §3

| SMILES | growth inhibition [1] | AUC0-t [2] [ng·h/mL] | Cmax [2] [ng/mL] | T1/2 [2] [h] | Tmax [2] [h] | Solubility [3] [mg/100 mL] | Cmax [4] [ng/mL] | T1/2 [4] [h] | Tmax [4] [h] | AUC0-t [4] [ng·h/mL] |
| --- | --- | --- | --- | --- | --- | --- | --- | --- | --- | --- |
| O=C1Nc2ccc(I)cc2C1=Cc1cc(Br)c(O)c(Br)c1 [GW5074, 3-(3,5-dibromo-4-hydroxybenzyliden)-5-iodo-1,3-duhydroindol-2-one] | about 70% | 6127.9 | 4905.2 | 3.719 | 0.5 |  |  |  |  |  |
| O=C1Nc2ccc(I)cc2C1=Cc1cc(Br)c([O-])c(Br)c1.[Na+] [MG-A1, Sodium Salts of GW5074] | about 70% |  |  |  |  |  |  |  |  |  |
| CC(C)(N)CN.O=C1Nc2ccc(I)cc2C1=Cc1cc(Br)c(O)c(Br)c1 [MG-A2, 2-Amino-2-Methylpropylamine Salt of GW5075] | about 70% |  |  |  |  | 0.19 | 6447.7 | 4.855 | 0.5 | 7936.2 |
| O=C1Nc2ccc(I)cc2C1=Cc1cc(Br)c(O)c(Br)c1.OCCN(CCO)CCO [MG-A3, Triethanolamine Salt of GW5075] | about 70% |  |  |  |  |  | 6844.6 | 4.364 | 0.5 | 8258.7 |
| C1COCCN1.O=C1Nc2ccc(I)cc2C1=Cc1cc(Br)c(O)c(Br)c1 [Morpholine Salt of GW5075] |  |  |  |  |  | 0.57 |  |  |  |  |

From US11304930B2, “Ammonium salts of 3-(3,5-dibromo-4-hydroxybenzyliden)-5-indo-1,3-dihydroindol-2-one and uses thereof” (Metagone Biotech Inc., priority 2018, dated 2022)
